Data reported in US9371568B2, “Markers associated with human double minute 2 inhibitors” (Novartis AG, priority 2012, dated 2016).

Columns and labels:
[1] = test system: SJSA-1, HCT116 p53wt/wt, SAOS2 and HCT116 p53-/- cells; assay: Cell proliferation inhibition assay (YOPRO), p53 wild-type and p53 mutant cell lines; format: cell-based; conditions: 72 hours, p53 wild-type vs p53 mutant cell lines
Method: Lucern, Switzerland). Briefly, cells are plated in 96-well plates overnight at 37° C. and are treated with increasing concentrations of MDM2i(1) or MDM2i(2) for 72 hours. Cell concentration in each well is then determined using the DNA-interacting fluorescent dye YOPRO according to the manufacturer's instructions and the fluorescent signal is measured using a Gemini-EM standard plate reader (Molecular Devices: Sunnyvale, Calif., USA).

COLO 792 cells = assay: Western blot of p53 pathway proteins, COLO 792 insensitive cells; format: cell-based; conditions: increasing concentrations, 4 hours
Method: (§1) That the biomarkers in Table 2/FIG. 3 are reflective of a functional p53 pathway in MDM2i sensitive cells is verified in FIG. 4. […]. Whole cell lysates were prepared using a cell lysis buffer containing 50 mM Tris-HCl pH 7.5, 120 mM NaCl, 1 mM EDTA, 6 mM EGTA pH 8.5, 1% NP-40, 20 mM NaF, 1 mM PMSF and 0.5 mM Na-Vanadat, proteins were separated on NuPAGE 4-12% Bis-Tris Gel (Invitrogen # NP0322BOX, Lucerne; Switzerland), transferred onto Nitrocellulose Protran® BA 85 membranes (Whatman #10 401 261: Piscataway, N.J., USA) at 1.5 mA/cm^2 membrane for 2 h using a semi-dry blotting system, and immunoblotted with either an anti-phospho-p53 (Ser^15) (1/1000; Cell Signaling Technology #9284: Beverly, Mass., USA) rabbit polyclonal antibody, or an anti-p53 (Ab-6) (Pantropic, clone DO-1,) (1/1000; Calbiochem # OP43 San Diego, Calif., USA), an anti-MDM2 (Ab-1, clone IF2) (1/1000; Calbiochem # OP46), an anti-p21^WAF1(Ab-1, clone EA10) (1/500; Calbiochem # OP64: San Diego, Calif., USA) or an anti-α-Tubulin (Sigma # T5168: St. Louis, Mo., USA) mouse monoclonal antibodies, as indicated. […].

p21(CDKN1A) [2] = assay: p21(CDKN1A) protein levels in SJSA-1 tumors (immunohistochemistry); format: in vivo, mice; conditions: SJSA-1 xenograft
Method: SJSA-1 xenograft tumors were collected and a 3-4 mm slice out of the middle of the tumor was removed, transferred into pre-labelled histo-cassettes and immersion-fixed in neutral buffered formalin (NBF) 10% (v/v) (pH 6.8-7.2) (J. T. Baker, Winter Garden, Fla., USA), pre-cooled at 4° C. Tumors were then fixed at room temperature for 24 hours, followed by processing in the TPC 15Duo (Tissue Processing Center, Medite) for paraffinization. Subsequently, the tumor slices were embedded in paraffin and from each paraffin block several 3 μm thick sections were cut on a rotary microtome (Mikrom International AG, Switzerland), spread in a 48° C. water-bath, mounted on glass slides (SuperFrost Plus, Thermo Scientific: Waltham Mass., USA), and dried in an oven either at 37° C. overnight or at 60° C. for 30 min. Dry tissue section were processed for immunohistochemistry (IHC) staining. p21(CDKN1A) immunohistochemistry has been performed using the mouse monoclonal antibody clone SX118 from Dako (Cat. No. M7202 Dako: Carpenteria Calif., USA) at a dilution of 1:50. Immunohistochemistry has been performed on a Ventana Discovery XT automated immunostainer using the N-Histofine Mousestain Kit (Nichirei Bioscience Inc, Japan) in combination with the DABMap Kit chromogen system, omitting the SA-HRP solution (Ventana/Roche Diagnostics GmbH, Mannheim, Germany). […]

p21(CDKN1A) [3] = assay: p21(CDKN1A) mRNA levels in SJSA-1 tumors (qRT-PCR); format: in vivo, mice; conditions: SJSA-1 xenograft, 25-100 mg/kg q24h
Method: Briefly, total RNA was purified from cell pellets using the QIAshredder® (79654, Qiagen: Valencia Calif., USA) and RNeasy Mini Kit® (74106, Qiagen: Valencia Calif., USA) according to the manufacturer's instructions, with the exception that no DNA digestion was performed. Total RNA was eluted with 50 μL of RNase-free water. Total RNA was quantitated using the spectrophotometer ND-1000 Nanodrop® (Wilmington Del., USA). The qRT-PCR (Quantitative Reverse Transcriptase Polymerase Chain Reaction) was set up in triplicate per sample using the One-Step RT qPCR Master Mix Plus (RT-QPRT-032×, Eurogentec: Seraing, Belgium), with either control primers and primers for human p21(CDKN1A) (Hs00355782_m1, Applied Biosystems: Carlsbad Calif., USA) or mouse p21(CDKN1A) (Mm00432448_m1, Applied Biosystems: Carlsbad Calif., USA), namely TaqMan Gene Expression kit assays (20× probe dye FAM™ (or VIC)-TAMRA (or MGB); Applied Biosystems: Carlsbad Calif., USA). […] The number of cycles (CT) was determined, 2^−CT values were calculated, and the value normalized by dividing with the 2^−CT value obtained from the Gapdh control. Fold increase over control (i.e. DMSO- or vehicle-treated animals) was calculated and plotted in the bar graph.

C3A cells = assay: Western blot of p53 pathway proteins, C3A sensitive cells; format: cell-based; conditions: 4 hours
Method: as §1

[4] = test system: SJSA-1 osteosarcoma cells; assay: SJSA-1 xenograft tumor growth in nude mice; format: in vivo; conditions: 10-day treatment
Method: To further validate the predictive biomarkers disclosed in FIG. 3, in vivo human xenograft models either from human primary samples or from cell lines were directly injected and grown in tumors subcutaneously in mice and then assessed for MDM2i sensitivity. All the animals were allowed to adapt for 4 days and housed in a pathogen-controlled environment (5 mice/Type III cage) with access to food and water ad libitum. Animals were identified with transponders. Studies were performed according to procedures covered by permit number 1975 issued by the Kantonales Veterinäramt Basel-Stadt and strictly adhered to the Eidgenössisches Tierschutzgesetz and the Eidgenössische Tierschutzverordnung. […] Tumor volumes (TVol), determined from caliper measurements (using the formula I×w×h×τ/6) were measured three times per week. Tumor response was quantified by the change in tumor volume (endpoint minus starting value in mm^3) as the T/C, i.e.
[formula] In the case of a tumor regression, the tumor response was quantified by the percentage of regression of the starting TVol, i.e.
[formula] The body-weight (BW) of the mice was measured three times per week allowing calculation at any particular time-point relative to the day of initiation of treatment (day 0) of both the percentage change in BW (Δ % BW). […]

[5] = test system: human and mouse normal fibroblasts; conditions: cited from earlier work
SJSA-1 osteosarcoma line = conditions: SJSA-1, amplified MDM2 gene; cited from earlier work

Row | SMILES | tumor cell proliferation [1] | phospho-p53 (COLO 792 cells) | p21(CDKN1A) protein levels in tumors (p21(CDKN1A) [2]) | p21(CDKN1A) mRNA levels in tumors (p21(CDKN1A) [3]) | phospho-p53 (C3A cells; C3A cells, increasing concentrations) | expression of p53 target genes p21(CDKN1A) and MDM2 (C3A cells; C3A sensitive cells) | T/C (tumor growth inhibition) ([4]; 25 mg/kg q24h) [%] | T/C (tumor growth inhibition) ([4]; 50 mg/kg q24h) [%] | proliferation of normal fibroblasts [5] | viability of normal fibroblasts [5] | apoptosis (SJSA-1 osteosarcoma line) | proliferation (SJSA-1 osteosarcoma line)
1 | COc1cc2c(cc1OC(C)C)[C@H](c1ccc(Cl)cc1)N(c1ccc(N(C)C[C@H]3CC[C@H](N4CCNC(=O)C4)CC3)cc1)C(=O)C2 [MDM2i(2)] | hampering tumor cell proliferation in a p53-dependent manner |  |  |  |  |  |  |  |  |  |  | 
2 | COc1cc2c(cc1OC(C)C)[C@H](c1ccc(Cl)cc1)N(c1ccc(N(C)C[C@H]3CC[C@H](N4CCN(C)C(=O)C4)CC3)cc1)C(=O)C2 [MDM2i(1)] | hampering tumor cell proliferation in a p53-dependent manner | no significant increase | significant dose-dependent induction | significant dose-dependent induction | no significant increase | strong de novo expression | 50 | 3 |  |  |  | 
3 | COc1ccc(C2=N[C@@H](c3ccc(Cl)cc3)[C@@H](c3ccc(Cl)cc3)N2C(=O)N2CCNC(=O)C2)c(OC(C)C)c1 [Nutlin-3] |  |  |  |  |  |  |  |  | proliferation of the cells was slowed | retained their viability | increased apoptosis | reduced proliferation
